Measurements reported in patent US7166688B1, “Chelation compositions” (LidoChem, Inc., priority 2000, dated 2007).

What was measured:
[1] = Manganese chelation, clear solution / precipitate test; format: physicochemical; details: 10 ml manganese nitrate solution in 25 ml water, 30 ml solution, pH 6, 1 gram potassium phosphate
Protocol: In 25 ml of water 10 ml of a manganese nitrate solution was added. Once the manganese nitrate was in solution, 30 ml of the N,N-diethanolsuccinamide amino ethanol solution produced in Example 17 was added to the mixture and the pH of the blend was adjusted to 6. Then 1 gram of potassium phosphate was added to the mixture.
A five percent chelated manganese solution was prepared by blending 18 ml of water with 58 grams of a (17% Mn) manganese nitrate solution. Once the manganese nitrate was in solution, 82 grams of the compound produced in Example 10 was added. […] This chelated manganese solution is suitable for blending with phosphorus fertilizers.

[2] = Iron chelation, clear solution / precipitate test; format: physicochemical; details: 20 ml 1.8M ferric nitrate in 25 ml water, 30 ml solution, pH 9.2, 1 gram potassium phosphate
Protocol: A five percent chelated iron solution was prepared by blending 18 ml of water with 100 grams of a (10% Fe) ferric nitrate solution. Once in solution, 82 grams of the compound produced in Example 10 was added.
In 25 ml of water, 20 ml of a 1.8M ferric nitrate was added. Once in solution, 30 ml of the diethanolsuccinamide amino ethanol solution produced in Example 17 was added and the pH of the blend was adjusted to 9.2. Then 1 gram of potassium phosphate was added to the mixture.
Five drops of 1.8 M ferric nitrate were added to one liter of water and mechanically blended. Then 10 grams of potassium phosphate were added to the solution and allowed to form insoluble potassium salts.
In 400 ml of water, 20 ml of a 10% ferric nitrate solution were added, and 20 ml of the product from example 25 were added. With mechanical stirring, 40 grams of monopotassium phosphate was added the mix. The pH of the solution was then adjusted to 2 with HCl. The pH of the solution was then gradually raised with the addition of base to a pH of 10.
In 400 ml of water, 10 ml of 1.8 M ferric nitrate solution were added and 20 ml of the product from example 28 were added. With mechanical stirring, 20 grams of monopotassium phosphate was added to the mix. The pH of the solution was then adjusted to 2 with HCL. The pH of the solution was then gradually raised with the addition of Monoethanolamine to a pH of 10.
To a beaker containing one liter of water, 20 grams of potassium phosphate were added to form a clear solution.
Thirty grams of 1.8 M ferric nitrate were added to 100 ml of water. The pH of the solution was lowered to 4 with phosphorous acid, and then 5 grams of Potassium phosphate were then added to the blend. Later 30 ml of the solution produced in example 29 was added.
One hundred ml of the solution prepared in Example 41 was added to 500 ml of water and blended. 10 ml of 1.8-M ferric nitrate was then added to the mixture. […] The potassium salt of maleic acid was tested as a chelating agent.
In a separate flask 20 grams of maleic anhydride were blended in 500 ml of water. Potassium hydroxide was then added to the blend to raise the pH to 10. Later ten ml of 1.8M ferric nitrate was added to the mix and 10 grams of potassium phosphate was also blended in. […] The contents of the flask were then blended again while MEA was added to the mix.

[3] = Copper chelation, clear solution / precipitate test; format: physicochemical; details: 1 gram copper sulfate in 250 ml water, 10 ml solution, pH 8.4, 1 gram potassium phosphate
Protocol: A five percent chelated copper solution was prepared by blending 19 grams of basic copper sulfate in 100 ml of water. Concentrated HCl was added to solubilize the copper. Once in solution, 71 grams of the compound produced in Example 10 was added. […] This chelated copper solution is suitable for blending with phosphorus fertilizers.
In 250 ml of water 1 gram of copper sulfate was added and mechanically stirred. To this solution, 10 ml of the diethanolsuccinamide-amino ethanol solution produced in Example 17 was added. The pH of the blend was adjusted to 8.4 and 1 gram of potassium phosphate was added the mixture.
In another flask, 1 gram of copper sulfate was added to 250 ml of water and mechanically blended. Then, 1 gram of potassium phosphate was added to the blend. The pH of the solution was adjusted with potassium hydroxide. Immediately a powder solid was formed and precipitated. The hydroxide and phosphate salts of copper were formed.
In 400 ml of water, 1 gram of copper sulfate was added and 10 ml of the product from example 28 were added. With mechanical stirring, 20 grams of monopotassium phosphate were added to the mix. The pH of the solution was then adjusted to 2 with HCl. The pH of the solution was then gradually raised with the addition of Monoethanolamine to a pH of 9.
Two grams of basic copper sulfate were added to 200 ml of water. […]

[4] = Zinc chelation, clear solution / precipitate test; format: physicochemical; details: 1 gram zinc sulfate in 25 ml water, 30 ml solution, pH 9.5, 1 gram potassium phosphate
Protocol: In 25 ml of water 1 gram of zinc sulfate was added. Once the zinc sulfate was in solution, 30 ml of the N,N-diethanolsuccinamide amino ethanol solution produced in Example 17 was added and the pH of the blend was adjusted to 9.5. Then 1 gram of potassium phosphate was added tho the mixture.
In a separate flask 25 ml of water, 1 gram of zinc sulfate and 1 gram of potassium phosphate were blended together. Immediately a white precipitate formed.
In 400 ml of water, 20 ml of a 17% zinc nitrate solution were added and 60 ml of the product from example 28 were added. With mechanical stirring, 40 grams of monopotassium phosphate were added to the mix. The pH of the solution was then adjusted to 2 with HCl. The pH of the solution was then gradually raised with the addition of Monoethanolamine to a pH of 9.
A nine percent chelated zinc solution was prepared by blending 50 ml of water with 22.4 grams zinc oxide. Concentrated HCl was added until the solution was clear. Once in solution, 125 grams of the compound produced in Example 10 was added. […] This chelated zinc solution is suitable for blending with phosphorus fertilizers 2-ethanolaminesuccinic-N-ethanolsuccinicamide (tri potassium salt) has the following formula: […]
Ten ml of 17% zinc solution were added to a liter of water. Later 20 grams of potassium phosphate were added and dissolved. Zinc phosphate formed a precipitate. Phosphorous acid was then added to lower the pH and clear the solution. Once clear 30 ml of the solution prepared in example 35 was added. This acidic solution, which was acidic, then remained undisturbed for a day, after which the pH was adjusted to 10 with the addition of MEA.

[5] = Calcium chelation, clear solution / precipitate test; format: physicochemical
Protocol: In a preliminary study, 2 grams of calcium chloride dihydrate were added to 200 ml of water and mechanically stirred. Then 20 ml of the diethanolsuccinamide amino ethanol solution produced in example 17 was added to the blend.
In another flask 2 grams of calcium chloride dihydrate were added to 200 ml of water and the pH was adjusted to 9. Almost immediately calcium hydroxide began to precipitate.

[6] = tested on: pepper plants; experiment: IDS versus EDTA chelates applied to the soil of pepper plants, tissue analysis; format: in vivo
Protocol: Below is the protocol and tissue analysis for the soil-applied iminodisuccinate and EDTA chelated mineral salts. Treatments: Control—no fertilizer 15-30-15 (fertilizer) alone 15-30-15 plus Cu IDS […] 15-30-15 plus Mn IDS […] 15-30-15 plus Zn IDS […] The standard fertilizer contained no micronutrients. Fertilizer was Hyponex 15-30-15. Each treatment was replicated 3 times. Soil treatments were applied as 50 ml per of the dilute blend of this invention. The pepper plants were transplanted into 1-gallon containers and grown until a suitable size. Plants were treated with the soil-applied chelate. Tissue samples were taken 30 days after the soil treatment had been applied. […] One gallon of fertilizer was poured over three replications of each set in the trial.

[7] = tested on: corn seed, NCE Hybrid 5817; experiment: Corn seed germination with IDS acid, root hairs; format: in vivo; details: 10 corn seed on germination tray, 1/10th of a gram of IDS acid, imbibed with water, day 5; control: root hairs only on short segments
Description: A 34% tetrasodium iminodisuccinate solution was protonated with concentrated HCl and crystalized under refrigeration in a dilute water/ethanol. The crystals were then filtered out of the solution and the residual sodium chloride was rinsed from the crystals with ice water. The IDS crystals were then dried. Two sets of 10 corn seed, NCE Hybrid 5817, were then placed on germination trays. One tray had 1/10th of a gram of the IDS acid placed in the center of the tray. The seeds were then imbibed with water. The seeds germinated as expected on day 2. On day 5 the root hairs began to show on the seedlings treated with the IDS. Photos were taken. This procedure was repeated on three occasions with simular results. There were also root hairs on the control set, however, the root hairs were only on short segments of the roots. […] This would be a substantial increase in the root surface area.

Structure (SMILES) | appearance of blend / precipitates [1] | appearance of blend / precipitates [2] | appearance of blend / precipitates [3] | appearance of blend / precipitates [4] | appearance of solution / precipitates ([5]; 2 grams calcium chloride dihydrate in 200 ml water, 20 ml solution, pH 9) | calcium phosphate precipitate formation ([5]; same solution lowered to a pH of 5.5, phosphate salts added) | copper in tissue, TREATED ([6]; soil applied with 15-30-15, tissue 30 days after treatment, control 8.0) | TREATED (dry weight) ([6]; soil applied, control 4.8) | TREATED DRY ([6]; soil applied, dry weight, CONTROL DRY 4.8) | copper in tissue, TREATED ADJUSTED ([6]; soil applied, tissue level times dry weight, control adjusted 38.08) | copper in tissue, CHANGE IN (adjusted) ([6]; soil applied, treated adjusted minus control adjusted 38.08) | CHANGE IN WEIGHT ([6]; soil applied, treated dry minus control dry 4.8) | copper in tissue, % CHANGE (adjusted) ([6]; soil applied, versus control adjusted 38.08) [%] | % CHANGE (dry weight) ([6]; soil applied, versus control dry 4.8) [%] | root hairs on seedlings [7]
O=C(CC(C(=O)[O-])N(CCO)C(CC(=O)NCCO)C(=O)[O-])NCCO.[K+].[K+] (stereo not drawn) [Example 17, diethanolsuccinicamide-amino ethanol] | clear, amber in color, and free of precipitates | clear, dark ruby red and free of precipitates | clear, dark blue and free of precipitates | clear, yellow, and free of precipitates | a clear solution free of precipitates | without calcium phosphate precipitate formation |  |  |  |  |  |  |  |  | 
O=C(O)CC(NC(CC(=O)O)C(=O)O)C(=O)O (stereo not drawn) [IDS, iminodisuccinic acid] |  |  |  |  |  |  | 10.8 | 6.4 | 6.8 | 68.79 | 30.72 | 2.09 | 81 | 44 | root hairs appear along the entire length of radical and lateral roots
